In patent publication US20050196744A1 (priority 2004, published 2005):
Where “and” joins values, the source holds several entries; their conditions need not be identical. Equal values may be shown once. Marks after values point to notes of the source that are not given here.

How the values were obtained:
[1] = molecular target: T1, D79E DAT (Rattus norvegicus, UniProt P23977, D79E); experiment: [3H]-WIN 35,428 binding / displacement at CHO cells stably expressing D79E DAT; settings: for loss of binding affinity ([3H]-WIN 35,428 displacement) caused by the D79E mutation (D79E vs WT DAT): CHO cells, comparison of Ki values
T1 construct: expressed in transfected cells; host or cells: CHO-K1, stably transfected; intact attached monolayers
T1 sequence (P23977 1-619 D79E): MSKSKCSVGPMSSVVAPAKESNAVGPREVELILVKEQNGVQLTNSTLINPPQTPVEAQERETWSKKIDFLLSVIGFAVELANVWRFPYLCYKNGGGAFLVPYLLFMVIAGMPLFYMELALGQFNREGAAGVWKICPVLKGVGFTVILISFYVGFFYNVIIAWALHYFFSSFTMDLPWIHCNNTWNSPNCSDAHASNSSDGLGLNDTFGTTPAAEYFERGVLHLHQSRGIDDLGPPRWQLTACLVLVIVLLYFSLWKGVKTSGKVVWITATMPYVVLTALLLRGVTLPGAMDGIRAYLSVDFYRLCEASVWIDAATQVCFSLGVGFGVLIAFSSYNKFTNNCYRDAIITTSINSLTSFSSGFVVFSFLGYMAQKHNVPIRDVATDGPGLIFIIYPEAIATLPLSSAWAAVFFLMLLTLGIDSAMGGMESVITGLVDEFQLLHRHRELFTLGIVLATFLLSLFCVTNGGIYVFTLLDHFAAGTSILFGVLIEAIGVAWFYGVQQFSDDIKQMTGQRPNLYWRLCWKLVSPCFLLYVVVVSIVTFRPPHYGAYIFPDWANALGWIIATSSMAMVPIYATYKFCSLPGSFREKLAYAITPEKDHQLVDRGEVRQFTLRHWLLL
Description: (§1) Ligand binding assays. […] Nonradioactive competitor concentrations were as indicated above for uptake inhibition. […] Membranes were aspirated with a Brandel harvester onto GF/B glass-fiber filter paper, washed with 3×5 ml cold binding buffer, and the filters measured for radioactivity via scintillation counting. For all binding assays, data were analyzed with the GraphPad Prism 2.0 software to obtain Kd, Ki and Bmax values.

[2] = molecular target: T1, D79E DAT; experiment: [3H]-dopamine uptake and uptake inhibition, CHO cells stably expressing D79E DAT; format: cell-based
[3] = molecular target: T2, WT DAT (Rattus norvegicus, UniProt P23977); experiment: [3H]-dopamine uptake and uptake inhibition, CHO cells stably expressing WT DAT; format: cell-based
T2 construct: expressed in transfected cells; host or cells: CHO-K1, stably transfected (G-418 selection); intact monolayers in A1 and A3, membranes in A5

[4] = molecular target: T2, WT DAT; experiment: [3H]-WIN 35,428 binding / displacement at intact CHO cells stably expressing WT DAT
Description: as §1

[5] = system: intact naïve CHO cells; experiment: [3H]-WIN 35,428 low affinity site of intact naïve CHO cells; format: binding; settings: intact naïve (untransfected) CHO cells
Description: To further address this steric issue, dihydroxy-benzylamine (DHBA) was employed as a potential DAT substrate. […] Ligand binding assays were conducted under conditions that matched those for assaying uptake inhibition.

[6] = substrate: NCCc1ccc(O)c(O)c1; experiment: cells, lysate or membranes; settings: 22° C., KRH buffer, mean ± standard error, pH 7.3
[7] = CHO cells, comparison of Ki values
[8] = DAT substrates, CHO cells, D79E DAT, 22° C., KRH buffer, mean ± standard error, read-out: Ki, inhibition of [3H]-DA uptake
[9] = DAT substrates, intact CHO cells, WT DAT, 1 nM [3H]-WIN 35,428, 15 min, 22° C., read-out: Ki, [3H]-WIN inhibition (binding affinity)
[10] = DAT substrates, CHO cells, WT DAT, 22° C., KRH buffer, mean ± standard error, read-out: Ki, inhibition of [3H]-DA uptake
[11] = DAT substrates, intact CHO cells, D79E DAT, 1 nM [3H]-WIN 35,428, 15 min, 22° C., read-out: Ki, [3H]-WIN inhibition (binding affinity)

Q: `NCCc1ccc(O)c(O)c1` [Dopamine, dopamine] was tested. Which “loss of binding affinity ([3H]-WIN 35,428 displacement) caused by the D79E mutation (D79E vs WT DAT)” value (“loss of binding affinity … (D79E vs WT DAT)” for short) [1] did it give?
A: almost identical

Q: And the “Vmax/Bmax (dopamine turnover rate)” value ([2]; D79E DAT CHO cells, Bmax from [3H]-WIN 35,428 saturation binding)?
A: 7.9 min⁻¹

Q: And the “Vmax of dopamine uptake” value ([2]; D79E DAT CHO cells, dopamine at 0.1 Ci/mmol, 5 min, 22° C.)?
A: 48 ± 4^a pmol/mg/min

Q: And the “decrease in DAT dopamine turnover rate rendered by the D79E mutation” value ([2]; corrected for fewer transporters at the cell surface)?
A: approximately 4 fold

Q: And the “Vmax/Bmax (dopamine turnover rate)” value ([3]; WT DAT CHO cells, Bmax from [3H]-WIN 35,428 saturation binding)?
A: 34.1 min⁻¹

Q: And the “Vmax of dopamine uptake” value ([3]; WT DAT CHO cells, dopamine at 0.1 Ci/mmol, 5 min, 22° C.)?
A: 348 ± 22 pmol/mg/min

Q: What about the “WT DAT turnover rate higher than that for D79E DAT CHO cells” value ([3]; [3H]-dopamine uptake kinetics, CHO cells) of the same molecule?
A: 7 fold

Q: Which results are given for `OC1(c2ccc(Cl)cc2)c2ccccc2C2=NCCN21` (stereo not shown) [Mazindol, mazindol]?
A: Ki [1]: 0.041 ± 0.003 µM; Ki [2]: 0.047 ± 0.004 µM; loss of dopamine uptake inhibition potency caused by the D79E mutation (D79E vs WT DAT) [2, 7]: no effect; Ki [4]: 0.013 ± 0.001 µM; Ki [3]: 0.031 ± 0.003 µM

Q: Which Ki [1] does the source give for `COC(=O)C(c1ccccc1)C1CCCCN1` (stereo not shown) [Methylphenidate, methylphenidate] here?
A: 0.167 ± 0.002 µM

Q: And the Ki [2]?
A: 0.161 ± 0.009 µM

Q: What about the “loss of dopamine uptake inhibition potency caused by the D79E mutation (D79E vs WT DAT)” value [2, 7] of the same molecule?
A: no effect

Q: For `NC[C@H](O)c1ccc(O)c(O)c1` [Norepinephrine], which Ki [1] is on record?
A: 5.5 ± 0.7 µM

Q: What about the “loss of binding affinity … (D79E vs WT DAT)” value [1] of the same molecule?
A: 2 fold

Q: And the “loss of dopamine uptake inhibition potency caused by the D79E mutation (D79E vs WT DAT)” value [2, 7]?
A: equally effective

Q: What about the Ki [2, 8] of the same molecule?
A: 5.2 ± 0.3 µM

Q: What about the Ki [4, 9] of the same molecule?
A: 2.3 µM

Q: And the Ki [3, 10]?
A: 5.4 µM

Q: `COC(=O)[C@H]1[C@@H](c2ccc(F)cc2)C[C@@H]2CC[C@H]1N2C` [WIN 35,428] was tested. Which “specific binding of [3H]-WIN 35,428” value ([1]; D79E DAT, suspended cells or cell membrane preparation in KRH uptake buffer) did it give?
A: undetectable

Q: What about the Kd [5] of the same molecule?
A: > 1 µM

Q: And the “loss of dopamine uptake inhibition potency caused by the D79E mutation (D79E vs WT DAT)” value [2, 7]?
A: no effect

Q: `NCCc1cccc(O)c1` [m-Tyramine] was tested. Which Ki [1, 11] did it give?
A: 6.6 ± 1.2 µM

Q: And the “loss of dopamine uptake inhibition potency caused by the D79E mutation (D79E vs WT DAT)” value [2, 7]?
A: unchanged

Q: And the Ki [2, 8]?
A: 1.2 ± 0.3 µM

Q: What about the Ki [4, 9] of the same molecule?
A: 1 µM

Q: And the Ki [3, 10]?
A: 1.4 ± 0.3 µM

Q: What does the source list for `NCCc1ccc(O)cc1` [p-Tyramine]?
A: Ki [1, 11]: 4.3 ± 0.5 µM; loss of dopamine uptake inhibition potency caused by the D79E mutation (D79E vs WT DAT) [2, 7]: 2 fold; Ki [2, 8]: 3.3 ± 0.4 µM; Ki [4, 9]: 0.8 µM; Ki [3, 10]: 1.7 ± 0.1 µM

Q: For dihydroxybenzylamine [DHBA], which “loss of binding affinity … (D79E vs WT DAT)” value [1] is on record?
A: identical

Q: And the Ki [1, 11]?
A: 791 ± 27 µM

Q: And the “potency of inhibition of [3H]-WIN 35,428 binding compared with potency for inhibition of [3H]-dopamine uptake at D79E DAT” value ([1]; intact CHO cells, D79E DAT)?
A: agrees well

Q: What about the “Ki at D79E DAT relative to the Ki value for dopamine binding at WT DAT (higher)” value [2] of the same molecule?
A: 377 fold

Q: What about the “Ki for uptake inhibition at D79E DAT relative to the dopamine Km value at WT DAT (higher)” value [2] of the same molecule?
A: 460 fold

Q: What about the “potency in inhibiting [3H]-dopamine uptake, higher at D79E DAT compared to WT DAT” value [2, 7] of the same molecule?
A: 7 fold

Q: What about the Ki [2, 8] of the same molecule?
A: 782 ± 22 µM

Q: And the Ki [4, 9]?
A: 800 µM and 801 µM

Q: What about the “more potent as inhibitor of [3H]-WIN 35,428 binding than as inhibitor of [3H]-dopamine uptake at WT DAT” value ([4]; intact CHO cells stably expressing WT DAT) of the same molecule?
A: 7 fold

Q: What about the Ki [3, 10] of the same molecule?
A: 5760 ± 540 µM

B1: WT DAT (Rattus norvegicus) (protein)
chain: MSKSKCSVGPMSSVVAPAKESNAVGPREVELILVKEQNGVQLTNSTLINPPQTPVEAQERETWSKKIDFLLSVIGFAVDLANVWRFPYLCYKNGGGAFLVPYLLFMVIAGMPLFYMELALGQFNREGAAGVWKICPVLKGVGFTVILISFYVGFFYNVIIAWALHYFFSSFTMDLPWIHCNNTWNSPNCSDAHASNSSDGLGLNDTFGTTPAAEYFERGVLHLHQSRGIDDLGPPRWQLTACLVLVIVLLYFSLWKGVKTSGKVVWITATMPYVVLTALLLRGVTLPGAMDGIRAYLSVDFYRLCEASVWIDAATQVCFSLGVGFGVLIAFSSYNKFTNNCYRDAIITTSINSLTSFSSGFVVFSFLGYMAQKHNVPIRDVATDGPGLIFIIYPEAIATLPLSSAWAAVFFLMLLTLGIDSAMGGMESVITGLVDEFQLLHRHRELFTLGIVLATFLLSLFCVTNGGIYVFTLLDHFAAGTSILFGVLIEAIGVAWFYGVQQFSDDIKQMTGQRPNLYWRLCWKLVSPCFLLYVVVVSIVTFRPPHYGAYIFPDWANALGWIIATSSMAMVPIYATYKFCSLPGSFREKLAYAITPEKDHQLVDRGEVRQFTLRHWLLL
Q: Which Km ([6]; other: CHO cells stably expressing WT DAT) does the source give for B1 here?
A: 1.7 ± 0.3 µM

B2: D79E DAT (Rattus norvegicus; D79E) (protein)
chain: MSKSKCSVGPMSSVVAPAKESNAVGPREVELILVKEQNGVQLTNSTLINPPQTPVEAQERETWSKKIDFLLSVIGFAVELANVWRFPYLCYKNGGGAFLVPYLLFMVIAGMPLFYMELALGQFNREGAAGVWKICPVLKGVGFTVILISFYVGFFYNVIIAWALHYFFSSFTMDLPWIHCNNTWNSPNCSDAHASNSSDGLGLNDTFGTTPAAEYFERGVLHLHQSRGIDDLGPPRWQLTACLVLVIVLLYFSLWKGVKTSGKVVWITATMPYVVLTALLLRGVTLPGAMDGIRAYLSVDFYRLCEASVWIDAATQVCFSLGVGFGVLIAFSSYNKFTNNCYRDAIITTSINSLTSFSSGFVVFSFLGYMAQKHNVPIRDVATDGPGLIFIIYPEAIATLPLSSAWAAVFFLMLLTLGIDSAMGGMESVITGLVDEFQLLHRHRELFTLGIVLATFLLSLFCVTNGGIYVFTLLDHFAAGTSILFGVLIEAIGVAWFYGVQQFSDDIKQMTGQRPNLYWRLCWKLVSPCFLLYVVVVSIVTFRPPHYGAYIFPDWANALGWIIATSSMAMVPIYATYKFCSLPGSFREKLAYAITPEKDHQLVDRGEVRQFTLRHWLLL
Q: With B2 as the molecule, how does the Km ([6]; other: CHO cells stably expressing D79E DAT) read?
A: 2.3 ± 0.3^ μM
